Where two headings read alike, the source gives them in different places.
Experiments:
live pests = assay: Condition of fumigated barge cargo on arrival at destination port (residues, live pests); assay type: in vivo; conditions: approximately two weeks later
Method: (§1) A fumigation apparatus, such as the fumigation apparatus 10 (FIGS. 1A-1C), was provided in a barge hatch at a source shipping port that was subsequently loaded with 2,700 metric tons of corn kernels (cargo). A dose of 2,600 g PH3 was injected (approximately 1.03 g PH3/ton cargo) without the use of a turbine (e.g., fan). A PH3 sensor was then used to measure the air quality immediately above the surface of the cargo and the gas concentration the approximately 1 meter below the surface of the cargo (using a probe) at predetermined time intervals.
as §1, with “On the same day as Experiment 1, a fumigation” for “A fumigation”, “at the” for “at a”, “of 2,200” for “of 2,600”, “(approximately 0.814” for “(approximately 1.03”, “cargo) with” for “cargo) without the use of”, “(e.g., fan) to push the PH3. The” for “(e.g., fan). A”
The day following Experiment 1 and Experiment 2, a fumigation apparatus, such as the fumigation apparatus 10 (FIGS. 1A-1C), was provided in a barge hatch at the source shipping port that was subsequently loaded with 2,700 metric tons of corn kernels (cargo). A dose of 1,700 g PH3 was injected (approximately […]) without auxiliary turbine and only with the air flow of the phosphine mixture delivery equipment itself (e.g., approximately 200 m^3/hour). The PH3 sensor was then used to measure the air quality immediately above the surface of the cargo and the gas concentration the approximately 1 meter below the surface of the cargo (using a probe) at predetermined time intervals.
The same day as Experiment 3, and eight days thereafter, nine barges were loaded and fumigated in a similar manner as in Experiment 3 to test repeatability.

Amyelois transitella = conditions: exposed for 24 Hours at 26.7° C. (80° F.), cited from earlier work
Orzaephilus surinamensis = conditions: exposed for 24 Hours at 26.7° C. (80° F.), cited from earlier work
Tribolium castaneum = conditions: exposed for 24 Hours at 26.7° C. (80° F.), cited from earlier work
Tribolium confusum = conditions: exposed for 24 Hours at 26.7° C. (80° F.), cited from earlier work
Lasioderma serricorne = conditions: exposed for 24 Hours at 26.7° C. (80° F.), cited from earlier work
Carpophilus hemipterus = conditions: exposed for 24 Hours at 26.7° C. (80° F.), cited from earlier work
Plodia interpunctella = conditions: exposed for 24 Hours at 26.7° C. (80° F.), cited from earlier work

Question: What does the source list for `P` [PH3, phosphine gas]?
Answer: cargo condition on arrival (residues and live pests) (live pests; Experiment 1: 2,600 g PH3 in 2,700 metric tons corn kernels, without turbine): free of residues and live pests; cargo condition on arrival (residues and live pests) (live pests; Experiment 2: 2,200 g PH3 in 2,700 metric tons corn kernels, with a turbine): free of residues and live pests; cargo condition on arrival (residues and live pests) (live pests; Experiment 3: 1,700 g PH3 in 2,700 metric tons corn kernels, without auxiliary turbine): free of residues and live pests; cargo condition on arrival (residues and live pests) (live pests; Experiment 4: nine additional barges fumigated as in Experiment 3): free of residues and live pests; Percent (%) Mortality adults (Amyelois transitella; 250 ppm PH3): 100%; Percent (%) Mortality eggs (Amyelois transitella; 250 ppm PH3): 0-78%; Percent (%) Mortality larvae (Amyelois transitella; 250 ppm PH3): 100%; Percent (%) Mortality pupae (Amyelois transitella; 250 ppm PH3): 100%; Percent (%) Mortality adults (Amyelois transitella; 500 ppm PH3): 100%; Percent (%) Mortality eggs (Amyelois transitella; 500 ppm PH3): 20-80%; Percent (%) Mortality larvae (Amyelois transitella; 500 ppm PH3): 100%; Percent (%) Mortality pupae (Amyelois transitella; 500 ppm PH3): 100%; Percent (%) Mortality adults (Amyelois transitella; 1000 ppm PH3): 100%; Percent (%) Mortality eggs (Amyelois transitella; 1000 ppm PH3): 70-100%; Percent (%) Mortality larvae (Amyelois transitella; 1000 ppm PH3): 100%; Percent (%) Mortality pupae (Amyelois transitella; 1000 ppm PH3): 100%; Percent (%) Mortality adults (Orzaephilus surinamensis; 250 ppm PH3): 100%; Percent (%) Mortality eggs (Orzaephilus surinamensis; 250 ppm PH3): 100%; Percent (%) Mortality larvae (Orzaephilus surinamensis; 250 ppm PH3): 97-100%; Percent (%) Mortality pupae (Orzaephilus surinamensis; 250 ppm PH3): 100%; Percent (%) Mortality adults (Orzaephilus surinamensis; 500 ppm PH3): 100%; Percent (%) Mortality eggs (Orzaephilus surinamensis; 500 ppm PH3): 100%; Percent (%) Mortality larvae (Orzaephilus surinamensis; 500 ppm PH3): 100%; Percent (%) Mortality pupae (Orzaephilus surinamensis; 500 ppm PH3): 100%; Percent (%) Mortality adults (Orzaephilus surinamensis; 1000 ppm PH3): 100%; Percent (%) Mortality eggs (Orzaephilus surinamensis; 1000 ppm PH3): 100%; Percent (%) Mortality larvae (Orzaephilus surinamensis; 1000 ppm PH3): 100%; Percent (%) Mortality pupae (Orzaephilus surinamensis; 1000 ppm PH3): 100%; Percent (%) Mortality adults (Tribolium castaneum; 250 ppm PH3): 100%; Percent (%) Mortality eggs (Tribolium castaneum; 250 ppm PH3): 90-100%; Percent (%) Mortality larvae (Tribolium castaneum; 250 ppm PH3): 100%; Percent (%) Mortality pupae (Tribolium castaneum; 250 ppm PH3): 100%; Percent (%) Mortality adults (Tribolium castaneum; 500 ppm PH3): 100%; Percent (%) Mortality eggs (Tribolium castaneum; 500 ppm PH3): 100%; Percent (%) Mortality larvae (Tribolium castaneum; 500 ppm PH3): 100%; Percent (%) Mortality pupae (Tribolium castaneum; 500 ppm PH3): 100%; Percent (%) Mortality adults (Tribolium castaneum; 1000 ppm PH3): 100%; Percent (%) Mortality eggs (Tribolium castaneum; 1000 ppm PH3): 100%; Percent (%) Mortality larvae (Tribolium castaneum; 1000 ppm PH3): 100%; Percent (%) Mortality pupae (Tribolium castaneum; 1000 ppm PH3): 100%; Percent (%) Mortality adults (Tribolium confusum; 250 ppm PH3): 100%; Percent (%) Mortality eggs (Tribolium confusum; 250 ppm PH3): 59-80%; Percent (%) Mortality larvae (Tribolium confusum; 250 ppm PH3): 100%; Percent (%) Mortality pupae (Tribolium confusum; 250 ppm PH3): 89-95%; Percent (%) Mortality adults (Tribolium confusum; 500 ppm PH3): 100%; Percent (%) Mortality eggs (Tribolium confusum; 500 ppm PH3): 83-100%; Percent (%) Mortality larvae (Tribolium confusum; 500 ppm PH3): 100%; Percent (%) Mortality pupae (Tribolium confusum; 500 ppm PH3): 89-98%; Percent (%) Mortality adults (Tribolium confusum; 1000 ppm PH3): 100%; Percent (%) Mortality eggs (Tribolium confusum; 1000 ppm PH3): 100%; Percent (%) Mortality larvae (Tribolium confusum; 1000 ppm PH3): 100%; Percent (%) Mortality pupae (Tribolium confusum; 1000 ppm PH3): 94-100%; Percent (%) Mortality adults (Lasioderma serricorne; 250 ppm PH3): 100%; Percent (%) Mortality eggs (Lasioderma serricorne; 250 ppm PH3): 87-94%; Percent (%) Mortality larvae (Lasioderma serricorne; 250 ppm PH3): 100%; Percent (%) Mortality pupae (Lasioderma serricorne; 250 ppm PH3): 100%; Percent (%) Mortality adults (Lasioderma serricorne; 500 ppm PH3): 100%; Percent (%) Mortality eggs (Lasioderma serricorne; 500 ppm PH3): 87-96%; Percent (%) Mortality larvae (Lasioderma serricorne; 500 ppm PH3): 100%; Percent (%) Mortality pupae (Lasioderma serricorne; 500 ppm PH3): 100%; Percent (%) Mortality adults (Lasioderma serricorne; 1000 ppm PH3): 100%; Percent (%) Mortality eggs (Lasioderma serricorne; 1000 ppm PH3): 96-100%; Percent (%) Mortality larvae (Lasioderma serricorne; 1000 ppm PH3): 100%; Percent (%) Mortality pupae (Lasioderma serricorne; 1000 ppm PH3): 100%; Percent (%) Mortality adults (Carpophilus hemipterus; 250 ppm PH3): 100%; Percent (%) Mortality eggs (Carpophilus hemipterus; 250 ppm PH3): 100%; Percent (%) Mortality larvae (Carpophilus hemipterus; 250 ppm PH3): 100%; Percent (%) Mortality pupae (Carpophilus hemipterus; 250 ppm PH3): 100%; Percent (%) Mortality adults (Carpophilus hemipterus; 500 ppm PH3): 100%; Percent (%) Mortality eggs (Carpophilus hemipterus; 500 ppm PH3): 100%; Percent (%) Mortality larvae (Carpophilus hemipterus; 500 ppm PH3): 100%; Percent (%) Mortality pupae (Carpophilus hemipterus; 500 ppm PH3): 100%; Percent (%) Mortality adults (Carpophilus hemipterus; 1000 ppm PH3): 100%; Percent (%) Mortality eggs (Carpophilus hemipterus; 1000 ppm PH3): 100%; Percent (%) Mortality larvae (Carpophilus hemipterus; 1000 ppm PH3): 100%; Percent (%) Mortality pupae (Carpophilus hemipterus; 1000 ppm PH3): 100%; Percent (%) Mortality adults (Plodia interpunctella; 250 ppm PH3): 100%; Percent (%) Mortality eggs (Plodia interpunctella; 250 ppm PH3): 89-96%; Percent (%) Mortality larvae (Plodia interpunctella; 250 ppm PH3): 95-100%; Percent (%) Mortality pupae (Plodia interpunctella; 250 ppm PH3): 100%; Percent (%) Mortality adults (Plodia interpunctella; 500 ppm PH3): 100%; Percent (%) Mortality eggs (Plodia interpunctella; 500 ppm PH3): 90-100%; Percent (%) Mortality larvae (Plodia interpunctella; 500 ppm PH3): 97-99%; Percent (%) Mortality pupae (Plodia interpunctella; 500 ppm PH3): 100%; Percent (%) Mortality adults (Plodia interpunctella; 1000 ppm PH3): 100%; Percent (%) Mortality eggs (Plodia interpunctella; 1000 ppm PH3): 95-100%; Percent (%) Mortality larvae (Plodia interpunctella; 1000 ppm PH3): 100%; Percent (%) Mortality pupae (Plodia interpunctella; 1000 ppm PH3): 100%
